Assay results published in ChEMBL document CHEMBL1201862, “PubChem BioAssay data set” (2004).
Calls of active or inactive are those of the source. Square brackets hold non-standard residues; d marks the D form. Peptide text beside a SMILES is read from it. * marks the point of attachment. Hyp = O=C(O)[CH]1C[CH](O)CN1; Cbz = O=C(OCc1ccccc1)*; OBn = c1ccc(CO*)cc1

Columns and labels:
[1] = tested on: HEK293; experiment: inhibitors of LMP1-driven NF-kB reporter, dose response, cell-based, HEK293, luciferase, cherry-pick (AID 588343); format: functional; settings: Homo sapiens
[2] = biological target: T1, Caspase-3 (Homo sapiens, UniProt P42574); format: functional;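 note: Dose-response selectivity test against caspase-3 for candidate inhibitors of sentrin-specific proteases (SENPs)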
T1 sequence (P42574 whole entry): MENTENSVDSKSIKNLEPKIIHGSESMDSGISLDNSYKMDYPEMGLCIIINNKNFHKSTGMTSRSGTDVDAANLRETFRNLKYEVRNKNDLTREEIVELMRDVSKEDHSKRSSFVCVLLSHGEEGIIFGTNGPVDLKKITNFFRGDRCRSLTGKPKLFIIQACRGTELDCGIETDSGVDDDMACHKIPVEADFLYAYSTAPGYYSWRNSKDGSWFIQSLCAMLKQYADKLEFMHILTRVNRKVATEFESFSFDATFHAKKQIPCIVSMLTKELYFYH

[3] = biological target: T2, Sentrin-specific protease 7 (Homo sapiens, UniProt Q9BQF6); format: functional;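 note: Luminescence-based dose-response confirmation of ultra-high-throughput screening hits, measuring inhibition of SENP7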
T2 sequence (Q9BQF6 whole entry): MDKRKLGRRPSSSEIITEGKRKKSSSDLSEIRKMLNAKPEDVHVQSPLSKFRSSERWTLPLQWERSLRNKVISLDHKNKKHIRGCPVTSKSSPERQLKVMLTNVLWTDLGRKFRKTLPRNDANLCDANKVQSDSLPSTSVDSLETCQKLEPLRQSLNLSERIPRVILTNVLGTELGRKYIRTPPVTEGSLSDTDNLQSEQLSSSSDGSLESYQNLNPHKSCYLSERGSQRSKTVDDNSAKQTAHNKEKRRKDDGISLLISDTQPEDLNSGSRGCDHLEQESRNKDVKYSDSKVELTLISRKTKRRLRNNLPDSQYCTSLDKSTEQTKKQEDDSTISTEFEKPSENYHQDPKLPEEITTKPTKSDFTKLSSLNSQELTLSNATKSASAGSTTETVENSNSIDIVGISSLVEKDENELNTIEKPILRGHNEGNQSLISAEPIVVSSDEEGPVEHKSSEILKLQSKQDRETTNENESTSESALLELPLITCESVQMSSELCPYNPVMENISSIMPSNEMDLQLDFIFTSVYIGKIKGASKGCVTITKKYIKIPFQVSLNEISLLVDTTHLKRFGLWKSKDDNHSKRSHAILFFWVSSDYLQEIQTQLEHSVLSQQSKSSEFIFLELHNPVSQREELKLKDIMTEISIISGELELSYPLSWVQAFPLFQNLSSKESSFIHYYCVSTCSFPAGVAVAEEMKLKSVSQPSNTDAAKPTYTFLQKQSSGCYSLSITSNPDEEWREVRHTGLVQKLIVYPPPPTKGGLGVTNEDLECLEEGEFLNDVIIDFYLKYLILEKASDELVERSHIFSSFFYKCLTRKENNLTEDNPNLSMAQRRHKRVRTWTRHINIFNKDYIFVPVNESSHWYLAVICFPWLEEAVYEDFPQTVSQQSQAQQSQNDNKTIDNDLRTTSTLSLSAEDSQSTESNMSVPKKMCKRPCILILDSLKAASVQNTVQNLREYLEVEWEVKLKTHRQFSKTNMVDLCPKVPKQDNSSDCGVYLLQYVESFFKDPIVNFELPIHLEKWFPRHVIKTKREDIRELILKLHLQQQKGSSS

[4] = biological target: T3, Sentrin-specific protease 6 (Homo sapiens, UniProt Q9GZR1); format: functional;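 note: Luminescence-based dose-response confirmatory assay of SENP6 inhibition, following up an ultra-high-throughput screen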
T3 sequence (Q9GZR1 whole entry): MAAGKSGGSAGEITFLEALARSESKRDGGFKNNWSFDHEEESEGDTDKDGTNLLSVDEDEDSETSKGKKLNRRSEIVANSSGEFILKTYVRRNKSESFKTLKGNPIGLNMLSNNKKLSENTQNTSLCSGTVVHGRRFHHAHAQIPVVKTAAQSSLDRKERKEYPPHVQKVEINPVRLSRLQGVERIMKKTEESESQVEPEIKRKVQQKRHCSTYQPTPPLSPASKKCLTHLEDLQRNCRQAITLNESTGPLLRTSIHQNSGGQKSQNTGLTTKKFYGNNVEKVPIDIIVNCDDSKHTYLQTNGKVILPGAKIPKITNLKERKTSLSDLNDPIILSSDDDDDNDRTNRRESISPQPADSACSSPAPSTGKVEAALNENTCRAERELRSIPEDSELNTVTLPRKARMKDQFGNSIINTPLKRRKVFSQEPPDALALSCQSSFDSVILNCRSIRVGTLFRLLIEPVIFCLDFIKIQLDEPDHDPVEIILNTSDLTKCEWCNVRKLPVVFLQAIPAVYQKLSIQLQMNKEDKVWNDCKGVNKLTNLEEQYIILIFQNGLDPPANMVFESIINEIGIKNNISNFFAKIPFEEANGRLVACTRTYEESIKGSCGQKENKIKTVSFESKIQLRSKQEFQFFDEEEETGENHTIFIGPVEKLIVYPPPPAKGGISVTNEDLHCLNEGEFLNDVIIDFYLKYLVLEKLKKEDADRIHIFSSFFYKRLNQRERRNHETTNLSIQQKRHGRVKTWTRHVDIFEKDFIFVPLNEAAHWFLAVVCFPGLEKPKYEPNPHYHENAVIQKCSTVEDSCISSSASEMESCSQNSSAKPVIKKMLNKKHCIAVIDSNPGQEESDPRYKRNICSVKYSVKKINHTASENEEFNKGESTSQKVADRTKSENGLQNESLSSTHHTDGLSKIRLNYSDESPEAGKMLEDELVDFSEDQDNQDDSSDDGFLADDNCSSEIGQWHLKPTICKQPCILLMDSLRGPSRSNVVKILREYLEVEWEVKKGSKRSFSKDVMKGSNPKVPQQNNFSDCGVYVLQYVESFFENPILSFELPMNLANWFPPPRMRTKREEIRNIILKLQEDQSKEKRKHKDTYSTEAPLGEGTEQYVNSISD

[5] = biological target: T4, Sentrin-specific protease 8 (Homo sapiens, UniProt Q96LD8); format: functional;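 note: luminescence read-out of SENP8 inhibition, dose-response confirmation following an ultra-high-throughput screen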
T4 sequence (Q96LD8 whole entry): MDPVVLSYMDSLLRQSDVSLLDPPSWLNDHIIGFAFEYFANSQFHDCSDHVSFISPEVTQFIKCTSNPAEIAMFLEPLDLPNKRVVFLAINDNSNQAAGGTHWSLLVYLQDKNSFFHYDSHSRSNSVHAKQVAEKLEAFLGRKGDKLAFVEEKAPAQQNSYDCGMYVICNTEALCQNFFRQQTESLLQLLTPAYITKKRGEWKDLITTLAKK

[6] = tested on: BJ; experiment: cytotoxicity toward BJ-TERT fibroblasts, dose response, cell-based, RAS-independent, luminescence (AID 1933); format: functional; settings: Homo sapiens
[7] = tested on: BJ; experiment: cells; format: functional, cell-based; settings: Homo sapiens
[8] = tested on: BJ; experiment: cytotoxicity toward BJ-TERT-LT-ST fibroblasts, dose response, cell-based, RAS-independent, luminescence (AID 1935); format: functional; settings: Homo sapiens;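 note: BJ fibroblasts immortalized with TERT plus LT and ST oncogenes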
[9] = cytotoxicity toward DRD oncogenic fibroblasts, dose response, cell-based, non-viral oncogenic, luminescence (AID 1934); format: functional; settings: Homo sapiens
[10] = tested on: BJ; experiment: cytotoxicity toward Ras-transformed BJeLR fibroblasts, dose response, cell-based, alamar blue fluorescence, cherrypicked samples (AID 2631); format: functional; settings: Homo sapiens;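 note: confirmatory dose-response assay in RAS-dependent BJ fibroblasts engineered with TERT, LT and ST, with cytotoxicity read by fluorescence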
[11] = tested on: Vero; experiment: cells; format: functional; settings: Chlorocebus sabaeus

With `CC(NC(=O)CNC(=O)OCc1ccccc1)C(=O)N1CC(O)CC1C(=O)OCc1ccccc1` (stereo not drawn) (Cbz-Gly-Ala-[Hyp]-OBn; configuration not given here) the AC50 [1] was 273 µM (active).

For `CCCCOC(=O)Nc1ccc2c(C)cc(=O)oc2c1`, the IC50 [2] was 7.45 µM (active), the IC50 [3] was 4.58 µM (active) and the IC50 [4] was 8.26 µM (active). For the same compound, the IC50 [5] was 12.7 µM (active).

For `CCOCCCn1c(=S)[nH]c2ncccc2c1=O`, the AC50 [1] was 135 µM (active).

With `O=C(CCCN1C(=O)/C(=C/c2cccc(Br)c2)SC1=S)NCCCN1CCOCC1` the EC50 [6] was 2.78 µM (inconclusive), the EC50 [7] was 14.7 µM (active) and the EC50 [8] was > 150 µM (not active). For the same compound, the EC50 [9] was 17.1 µM (active), the EC50 [10] was > 133 µM (inactive) and the CC50 [11] was > 25 µM (active).
